We go through 6 molecules from ChEMBL document CHEMBL1201862, “PubChem BioAssay data set” (2004).

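Following 48 hours of exposure in 96-well plates, responses at five concentrations were used to interpolate endpoints linearly. The concentration for 50% growth inhibition is given as GI50.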 Activity calls are given as the source filed them. No stated cut-off is given here; in the data, active = GI50 up to about 1.1 µM and inactive = higher.

Among the test systems are A498; A549; ACHN; DU-145; HOP-92; IGROV-1; K562; M14; MDA-MB-231; MDA-N; NCI-H460; NCI/ADR-RES; OVCAR-4; OVCAR-8; RXF 393; SF-295; SK-MEL-28; SN12C; SR; T47D.
Common to all, as to assay: NCI anticancer screen, dose series, 48 h

With `COc1ccccc1/N=N/C(=N\NC(=O)c1ccc(C)cc1)c1ccc(N(CCC#N)CCC#N)cc1C`, the GI50 was 51.8 µM (inactive) in the assay on A498; 40.9 µM (inactive) in the assay with A549; 89.1 µM (inactive) in the assay on ACHN; 32.6 µM (inactive) with DU-145; > 100 µM (inactive) in the assay on HOP-92; 33.7 µM (inactive) with IGROV-1. Besides, the GI50 with K562 was 37.8 µM (inactive); in the assay with M14, 38.2 µM (inactive); in the assay on MDA-MB-231, 47.9 µM (inactive); with MDA-N, 45.6 µM (inactive); in the assay on NCI-H460, 32.3 µM (inactive); with NCI/ADR-RES, 63 µM (inactive). Besides, the GI50 in the assay on OVCAR-4 is 43.6 µM (inactive); in the assay on OVCAR-8, 42.3 µM (inactive); in the assay on RXF 393, 25.5 µM (inactive); in the assay with SF-295, 48.5 µM (inactive); with SK-MEL-28, > 100 µM (inactive); with SN12C it was 39.4 µM (inactive). Moreover, the GI50 in the assay with SR was 29.3 µM (inactive); in the assay on T47D, 20.8 µM (inactive).

`COC1(C)OC[C@@]2(C)OC(C)C1(C)C2O[Si](C(C)C)(C(C)C)C(C)C` (stereo not given in full): the GI50 is 66.8 µM (inactive) in the assay on A498; 32.2 µM (inactive) in the assay with A549; 25.2 µM (inactive) in the assay with ACHN; 38.7 µM (inactive) with DU-145; 24.9 µM (inactive) in the assay on HOP-92; 28.7 µM (inactive) with IGROV-1. Also, the GI50 in the assay with K562 was 26.5 µM (inactive); in the assay with M14, 37.6 µM (inactive); in the assay with MDA-MB-231, 26.4 µM (inactive); with MDA-N, 31.4 µM (inactive); in the assay with NCI-H460, 23.7 µM (inactive); in the assay with NCI/ADR-RES, 22.1 µM (inactive). The GI50 with OVCAR-4 is 30.3 µM (inactive); in the assay with OVCAR-8, 36.8 µM (inactive); in the assay with RXF 393, 27 µM (inactive); in the assay on SF-295, 19.9 µM (inactive); in the assay on SK-MEL-28, 38.4 µM (inactive); with SN12C, 23 µM (inactive). For the same molecule, the GI50 in the assay on SR and with T47D was 27.6 µM (inactive) each time.

Take `COC(=O)c1cnc(Cl)c([N+](=O)[O-])c1`: the GI50 is 21.4 µM (inactive) in the assay with A498; 20.6 µM (inactive) in the assay with A549; 12.6 µM (inactive) in the assay with ACHN; 9.57 µM (inactive) in the assay on DU-145; 2.17 µM (inactive) in the assay with HOP-92; 2.79 µM (inactive) in the assay on IGROV-1. Also, the GI50 with K562 was 2.44 µM (inactive); in the assay on M14 it was 14 µM (inactive); in the assay with MDA-MB-231, 16.3 µM (inactive); in the assay on MDA-N it was 7.6 µM (inactive); with NCI-H460, 14.7 µM (inactive); with NCI/ADR-RES, 22.4 µM (inactive). Also, the GI50 in the assay with OVCAR-4 is 21.1 µM (inactive); in the assay with OVCAR-8, 2.03 µM (inactive); in the assay with RXF 393, 12 µM (inactive); in the assay on SF-295, 19 µM (inactive); with SK-MEL-28, 17.1 µM (inactive); in the assay on SN12C, 12.9 µM (inactive). For the same molecule, the GI50 is 1.9 µM (inactive) in the assay with SR and 2.09 µM (inactive) in the assay with T47D.

Regarding `Clc1cc(OC23CC4CC(CC(C4)C2)C3)nc(Cl)n1`, the GI50 in the assay on A498 was > 100 µM (inactive); with A549, > 100 µM (inactive); in the assay on ACHN, > 100 µM (inactive); in the assay on DU-145 it was 55.7 µM (inactive); in the assay with HOP-92, 1.7 µM (inactive); in the assay with IGROV-1 it was 27.2 µM (inactive). Moreover, the GI50 with K562 was 21.9 µM (inactive); in the assay on M14, 29.9 µM (inactive); in the assay with MDA-MB-231 it was 33.7 µM (inactive); with MDA-N, 50.6 µM (inactive); in the assay with NCI-H460, 39.6 µM (inactive); in the assay on NCI/ADR-RES, > 100 µM (inactive). The GI50 with OVCAR-4 is 40.9 µM (inactive); in the assay with OVCAR-8, > 100 µM (inactive); in the assay with RXF 393 it was 27.8 µM (inactive); with SF-295, > 100 µM (inactive); in the assay on SK-MEL-28 it was 43.2 µM (inactive); in the assay on SN12C, > 100 µM (inactive). Moreover, the GI50 in the assay on SR is 19.8 µM (inactive); in the assay on T47D, > 100 µM (inactive).

For the molecule `NC(=O)C(=CNC(=S)Nc1ccccc1)C(N)=O`, the GI50 is > 100 µM (inactive) in the assay with A498; > 100 µM (inactive) in the assay with A549; > 100 µM (inactive) with ACHN; > 100 µM (inactive) in the assay on DU-145; 29.9 µM (inactive) in the assay with HOP-92; > 100 µM (inactive) in the assay on IGROV-1. Further, the GI50 in the assay on K562, with M14, in the assay on MDA-MB-231, in the assay with MDA-N, in the assay on NCI-H460 and with NCI/ADR-RES was > 100 µM (inactive) in each case. The GI50 with OVCAR-4, in the assay on OVCAR-8, in the assay on RXF 393, in the assay with SF-295, with SK-MEL-28 and with SN12C was > 100 µM (inactive) in each case. For the same molecule, the GI50 with SR is > 100 µM (inactive); with T47D, 97.7 µM (inactive).

Take `C/C(=N\O)c1ccc(Nc2c3ccccc3nc3occc23)cc1`: the GI50 in the assay on A498 is 1.11 µM (active); in the assay on A549 it was 0.263 µM (active); with ACHN it was 0.302 µM (active); with DU-145 it was 1.05 µM (active); in the assay on HOP-92 it was 12.2 µM (inactive); in the assay on IGROV-1 it was 0.231 µM (active). In addition, the GI50 in the assay on K562 is 0.174 µM (active); with M14, 0.236 µM (active); in the assay on MDA-MB-231, 0.9 µM (active); in the assay with MDA-N, 0.0847 µM (active); in the assay on NCI-H460, 0.2 µM (active); in the assay with NCI/ADR-RES, 0.115 µM (active). The GI50 in the assay on OVCAR-4 was 0.762 µM (active); in the assay on OVCAR-8, 0.531 µM (active); in the assay on RXF 393, 0.0352 µM (active); in the assay on SF-295 it was 0.151 µM (active); in the assay with SK-MEL-28 it was 0.659 µM (active); in the assay on SN12C, 1.44 µM (inactive). Moreover, the GI50 is 0.023 µM (active) in the assay with SR and 0.553 µM (active) with T47D.
